Test results published in US9522907B2, “Anticancer agent and process for the preparation thereof” (COUNCIL OF SCIENTIFIC & INDUSTRIAL RESEARCH, priority 2014, dated 2016).

Key:
[1] = system: Breast cancer cell lines; assay: cells; format: cell-based; details: for CC50: read-out: Log10 LC50 mean graph midpoint (MG_MID) (converted)
Description: (§1) The mean graph midpoint values of Log10 GI50 as well as Log10 LC50 for the compounds 2i, 5i and Hoechst 33258 (NSC-322921) is listed in Table 2.
(§2) Each cancer type represents the average of six to eight different cancer cell lines.

[2] = system: CNS cancer cell lines; assay: cells; format: cell-based; details: for CC50: read-out: Log10 LC50 mean graph midpoint (MG_MID) (converted)
Description: as §1, §2

[3] = system: Colon cancer cell lines; assay: cells; format: cell-based; details: for LC50: read-out: Log10 LC50 mean graph midpoint (MG_MID) (converted)
Description: as §1, §2

[4] = system: Leukemia cancer cell lines; assay: cells; format: cell-based; details: for LC50 (50% lethal concentration, NCI mean graph midpoint): read-out: Log10 LC50 mean graph midpoint (MG_MID) (converted)
Description: as §1, §2

[5] = system: Melanoma cancer cell lines; assay: cells; format: cell-based; details: for LC50: read-out: Log10 LC50 mean graph midpoint (MG_MID) (converted)
Description: as §1, §2

[6] = system: Non-small-cell lung cancer cell lines; assay: cells; format: cell-based; details: for LC50 (lethal concentration 50%): read-out: Log10 LC50 mean graph midpoint (MG_MID) (converted)
Description: as §1, §2

[7] = system: Ovarian cancer cell lines; assay: cells; format: cell-based; details: for CC50: read-out: Log10 LC50 mean graph midpoint (MG_MID) (converted)
Description: as §1, §2

[8] = system: Prostate cancer cell lines; assay: cells; format: cell-based; details: for CC50: read-out: Log10 LC50 mean graph midpoint (MG_MID) (converted)
Description: as §1, §2

[9] = system: Renal cancer cell lines; assay: cells; format: cell-based; details: for CC50: read-out: Log10 LC50 mean graph midpoint (MG_MID) (converted)
Description: as §1, §2

[10] = system: SR (leukemia cell line); assay: NCI in vitro cytotoxicity, SR; details: Homo sapiens
Description: (§3) For these compounds results are expressed as growth inhibition (GI50) values as per NCI protocol.

[11] = system: EKVX; assay: NCI in vitro cytotoxicity, EKVX; details: Homo sapiens
Description: as §3

[12] = system: 786-0; assay: NCI in vitro cytotoxicity, 786-0; details: Homo sapiens
Description: as §3

[13] = system: HOP-92; assay: NCI in vitro cytotoxicity, HOP-92; details: Homo sapiens
Description: as §3

[14] = system: SF-539; assay: NCI in vitro cytotoxicity, SF-539; details: Homo sapiens
Description: as §3

[15] = system: CAKI-1; assay: NCI in vitro cytotoxicity, CAKI-1; details: Homo sapiens
Description: as §3

[16] = system: OVCAR-3; assay: NCI in vitro cytotoxicity, OVCAR-3; details: Homo sapiens
Description: as §3

[17] = system: OVCAR-5; assay: NCI in vitro cytotoxicity, OVCAR-5; details: Homo sapiens
Description: as §3

[18] = system: RXF 393; assay: NCI in vitro cytotoxicity, RXF 393; details: Homo sapiens
Description: as §3

[19] = system: NCI-H460; assay: NCI in vitro cytotoxicity, NCI-H460; details: Homo sapiens
Description: as §3

[20] = system: COLO 205; assay: NCI in vitro cytotoxicity, COLO 205; details: Homo sapiens
Description: as §3

[21] = system: UACC-257; assay: NCI in vitro cytotoxicity, UACC-257; details: Homo sapiens
Description: as §3

[22] = system: NCI-H322M; assay: NCI in vitro cytotoxicity, NCI-H322M; details: Homo sapiens
Description: as §3

[23] = system: MDA-MB-435; assay: NCI in vitro cytotoxicity, MDA-MB-435; details: Homo sapiens
Description: as §3

[24] = system: MDA-MB-468; assay: NCI in vitro cytotoxicity, MDA-MB-468; details: Homo sapiens
Description: as §3

[25] = system: K-562; assay: NCI in vitro cytotoxicity, K-562; details: Homo sapiens, K562
Description: as §3

[26] = system: BT-549 (breast cancer cell line); assay: NCI in vitro cytotoxicity, BT-549; details: Homo sapiens
Description: as §3

Row | Structure (SMILES) | CC50 ([1]; Homo sapiens) | CC50 ([2]; Homo sapiens) | LC50 ([3]; Homo sapiens) | LC50 (50% lethal concentration, NCI mean graph midpoint) ([4]; Homo sapiens) | LC50 ([5]; Homo sapiens) | LC50 (lethal concentration 50%) ([6]; Homo sapiens) | CC50 ([7]; Homo sapiens) | CC50 ([8]; Homo sapiens) | CC50 ([9]; Homo sapiens) | GI50 [10] | GI50 [11] | GI50 [13] | GI50 [14] | GI50 [15] | GI50 [16] | GI50 [17] | GI50 [18] | GI50 [19] | GI50 [21] | GI50 [23] | other results
1 | COc1cc(-c2nc(-c3ccc(-c4nc5cc(F)ccc5[nH]4)cc3)no2)cc(OC)c1OC [2i, 3-(4-(5-Fluoro-1H-benzo[d]imidazol-2-yl)phenyl)-5-(3,4,5-trimethoxyphenyl)-1,2,4-oxadiazole] | 93.3 µM | 91.2 µM | 75.9 µM | ≥ 100 µM | 35.5 µM | 75.9 µM | 87.1 µM | ≥ 100 µM | 79.4 µM | 2.98 µM | 3.45 µM | 1.76 µM | 3.37 µM | 2.76 µM | 2.56 µM | 5.59 µM | 1.9 µM | 2.97 µM | 3.7 µM | 2.73 µM | Log10 GI50 mean graph midpoint (MG_MID) ([1]; Breast, average of cell lines of the cancer type): −5.55; Log10 GI50 mean graph midpoint (MG_MID) ([2]; CNS, average of cell lines of the cancer type): −5.39; Log10 GI50 mean graph midpoint (MG_MID) ([3]; Colon, average of cell lines of the cancer type): −5.44; Log10 GI50 mean graph midpoint (MG_MID) ([4]; Leukemia, average of cell lines of the cancer type): −5.64; Log10 GI50 mean graph midpoint (MG_MID) ([5]; Melanoma, average of cell lines of the cancer type): −5.55; Log10 GI50 mean graph midpoint (MG_MID) ([6]; Non-small-cell lung, average of cell lines of the cancer type): −5.47; Log10 GI50 mean graph midpoint (MG_MID) ([7]; Ovarian, average of cell lines of the cancer type): −5.49; Log10 GI50 mean graph midpoint (MG_MID) ([8]; Prostate, average of cell lines of the cancer type): −5.51; Log10 GI50 mean graph midpoint (MG_MID) ([9]; Renal, average of cell lines of the cancer type): −5.45; GI50 [12]: 3.61 µM; GI50 [20]: 4.77 µM; GI50 [22]: 1.3 µM; GI50 [24]: 3.01 µM
2 | COc1ccc2[nH]c(-c3ccc(-c4noc(-c5cc(OC)c(OC)c(OC)c5)n4)cc3)nc2c1 [5i, 3-(4-(5-Methoxy-1H-benzo[d]imidazol-2-yl)phenyl)-5-(3,4,5-trimethoxyphenyl)-1,2,4-oxadiazole] | 79.4 µM | 44.7 µM | 85.1 µM | 100 µM | 83.2 µM | 79.4 µM | 67.6 µM | 91.2 µM | 74.1 µM | 0.71 µM | 26.2 µM | 14.3 µM | 2 µM | 23.4 µM | 42.5 µM | 16.7 µM | 5.24 µM | 4.6 µM | 17.1 µM | 4.27 µM | GI50 ([1]; Homo sapiens, Breast, average of cell lines of the cancer type, read-out: Log10 GI50 mean graph midpoint (MG_MID) (converted)): 3.39 µM; GI50 ([2]; Homo sapiens, CNS, average of cell lines of the cancer type, read-out: Log10 GI50 mean graph midpoint (MG_MID) (converted)): 6.31 µM; GI50 ([3]; Homo sapiens, Colon, average of cell lines of the cancer type, read-out: Log10 GI50 mean graph midpoint (MG_MID) (converted)): 4.79 µM; GI50 ([4]; Homo sapiens, Leukemia, average of cell lines of the cancer type, read-out: Log10 GI50 mean graph midpoint (MG_MID) (converted)): 3.31 µM; GI50 ([5]; Homo sapiens, Melanoma, average of cell lines of the cancer type, read-out: Log10 GI50 mean graph midpoint (MG_MID) (converted)): 7.59 µM; GI50 ([6]; Homo sapiens, Non-small-cell lung, average of cell lines of the cancer type, read-out: Log10 GI50 mean graph midpoint (MG_MID) (converted)): 8.71 µM; GI50 ([7]; Homo sapiens, Ovarian, average of cell lines of the cancer type, read-out: Log10 GI50 mean graph midpoint (MG_MID) (converted)): 7.59 µM; GI50 ([8]; Homo sapiens, Prostate, average of cell lines of the cancer type, read-out: Log10 GI50 mean graph midpoint (MG_MID) (converted)): 14.1 µM; GI50 ([9]; Homo sapiens, Renal, average of cell lines of the cancer type, read-out: Log10 GI50 mean graph midpoint (MG_MID) (converted)): 14.5 µM; GI50 [25]: 1.2 µM; GI50 [26]: 0.52 µM; GI50 [24]: 6.54 µM
